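Five concentrations, 48 hours, 96-well plates. GI50 = concentration required for 50% inhibition of growth. TGI: total growth inhibition.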

The assay deals with MDA-MB-468 breast. The assay can be described thus: NCI tumour cell line growth inhibition, 48 h.
Consider `COc1ccc(-c2nsc3c2NC(=O)CC3c2ccc3c(c2)OCO3)cc1` (centres undefined), for which the GI50 is 0.612 µM and the TGI stood at 25.9 µM.
Regarding `NS(=O)(=O)c1ccc(C2C3=C(CCCC3=O)OC3=C2C(=O)c2ccccc2C3=O)cc1` (centres undefined), the GI50 is 0.231 µM and the TGI was 0.671 µM.
For `CN(C)c1ccc(C(=O)c2ccc(N(C)C)c(N)c2)cc1N`, in that order: 0.781 µM and 4.72 µM.
As for `O=C1C2=C(C(=O)c3c(O)cccc31)C(c1ccco1)c1sc(=O)[nH]c1S2` (centres undefined), the GI50 is 2.01 µM and the TGI was found to be 6.59 µM.
For the compound `Cc1nc2cncc(C#Cc3cncc(C(=O)Nc4ccc(CN5CCN(C)CC5)c(C(F)(F)F)c4)c3)c2nc1C`, the GI50 was 0.949 µM and the TGI came out at 7.34 µM.
Turning to `Cc1ccccc1S(=O)(=O)N1[C@H](c2ccc(Cl)cc2)C(C(=O)N[C@@H](Cc2ccccc2)C(N)=O)=C[C@@H]1C(C)(C)C`, the GI50 is 4.13 µM and the TGI was determined as 12.5 µM.
Regarding `CNC(=O)c1c(NC(=O)c2cccc(C(F)(F)F)c2)sc2c1CCC(=O)C2`, the GI50 is 0.396 µM and the TGI was 2.3 µM.
On the same counts, the results for `CCCCCCCCCCCCCC[P+](CCCCCC)(CCCCCC)CCCCCC` are 0.0366 µM and 0.175 µM.
For `COc1cc([C@@H]2c3cc4c(cc3C(Br)[C@H]3COC(=O)[C@H]23)OCO4)cc(OC)c1OC` (some centres undefined), the GI50 was 0.175 µM and the TGI came to 0.625 µM.
Turning to `CCN(CC)CCOc1ccc(Nc2ncc3cc(-c4c(Cl)cccc4Cl)c(=O)n(CCOC)c3n2)cc1`, the GI50 was 1.26 µM and the TGI came out at 3.99 µM.
`CN(C)C(=S)NN=C(c1ccccn1)c1ccccn1`: the GI50 was below 0.01 µM and the TGI came out at 24 µM.
For `COc1ccc(C2=CC(c3cc(OC)c(OC)c(OC)c3)NC(=O)N2)cc1OC` (centres undefined), the GI50 was 3.21 µM and the TGI came out at 15.1 µM.
On to `CCCCCCCCCCCCCCCC(=O)OCC1OC(n2cnc3c(=S)nc(N)[nH]c32)C(OC(=O)CCCCCCCCCCCCCCC)C1OC(=O)CCCCCCCCCCCCCCC` (centres undefined), for which the GI50 was 1.39 µM and the TGI was above 50 µM.
`O=C(CCCCCCNC(=O)C(O)(O)C(F)(F)F)Nc1ncc(-c2ccc(Br)cc2)s1`: the GI50 was 0.752 µM and the TGI was 5.35 µM.
Consider `COc1ccc(Nc2ccnc(NCCNc3ccnc4cc(Cl)ccc34)n2)cc1`, for which the GI50 was 0.997 µM and the TGI was 3.22 µM.
Consider `OCc1cccc(-c2ccc3ncc(-c4nc(NC5CC5)ncc4F)n3c2)c1`, for which the GI50 was 0.25 µM and the TGI is 0.603 µM.
Turning to `CCN(CC)c1ccc(N=C2C=C(C(=O)Nc3ccc(S(C)(=O)=O)cc3)C(=O)c3ccccc32)c(C)c1`, the GI50 was above 100 µM and the TGI is above 100 µM.
Turning to `C=C1C(=O)O[C@H]2[C@H]1CC/C(CNC(=O)/C=C/c1cccc(OC)c1)=C\CC[C@@]1(C)O[C@@H]21`, the GI50 is 0.485 µM and the TGI stood at 2.13 µM.
`C=C1C(=O)O[C@H]2[C@H]1CC/C(CNS(=O)(=O)c1ccc3ccccc3c1)=C\CC[C@@]1(C)O[C@@H]21`: the GI50 was 0.363 µM and the TGI amounted to 1.62 µM.
Turning to `O=S1(=O)N(Cc2ccccc2)[C@@H](Cc2ccccc2)C2O[C@H]2[C@H](Cc2ccccc2)N1Cc1ccccc1` (some centres undefined), the GI50 was 0.274 µM and the TGI is above 7.5 µM.
As to `N#Cc1cccc(C(=O)c2cnn(-c3ccc(F)cc3)c2N)c1`, the GI50 was above 25 µM and the TGI was above 25 µM.
Turning to `CCOC(=O)c1c2c(n3ccc(NC(=O)OC(C)(C)C)cc13)C(=O)c1ncccc1C2=O`, the GI50 was 1.33 µM and the TGI turned out to be 3.82 µM.
Take `CCc1ccc(-c2ccc(=O)n(-c3ccc(S(N)(=O)=O)cc3)n2)cc1`: the GI50 is 3.18 µM and the TGI was above 100 µM.
For `CSc1ccc(-c2cc(-c3ccc(NC(=O)CCCN4CCCC4)cc3)nc(-c3ccc(NC(=O)CCCN4CCCC4)cc3)c2)cc1`, the GI50 was 1.56 µM and the TGI amounted to 3.03 µM.
On to `Nc1nc2c(c3ncccc13)C(c1ccc(Cl)c(Cl)c1)Cc1ncccc1-2` (centres undefined), for which the GI50 was 3.25 µM and the TGI was 11.2 µM.
With `Nc1ccc(N=Nc2ccccc2)c(N)n1`, the GI50 is 16.2 µM and the TGI stood at 60.9 µM.
On to `COc1ccc(C(O)c2cc3c(N)c(C(=O)Nc4cccc(Cl)c4C)sc3nc2C)cc1` (centres undefined), for which the GI50 is 0.742 µM and the TGI worked out at 1.48 µM.
For `CC/C=C\C/C=C\C[C@H](O)C/C=C1/C(=O)C=C[C@H]1C/C=C\CCC(=O)OC`, in that order: 1.56 µM and 4.74 µM.
For `NC(=O)C(Br)CBr` (centres undefined), the GI50 is 1.46 µM and the TGI stood at 4.35 µM.
As for `Nc1ccccc1NC(=O)CCCCCCC(=O)Nc1ccc2c(c1)/C(=C/c1ccc[nH]1)C(=O)N2`, the GI50 was 1.83 µM and the TGI was above 100 µM.
For `COc1cc2c(c(OC)c1OC)-c1ccc(NNC(=S)N(Cc3cccc(C[N+](Cc4cccc(CNC56CC7CC(CC(C7)C5)C6)c4)(Cc4cccc(CNC56CC7CC(CC(C7)C5)C6)c4)Cc4cccc(CN(C(=S)NNc5ccc6c(cc5=O)[C@@H](NC(C)=O)CCc5cc(OC)c(OC)c(OC)c5-6)C56CC7CC(CC(C7)C5)C6)c4)c3)C34CC5CC(CC(C5)C3)C4)c(=O)cc1[C@@H](NC(C)=O)CC2` (some centres undefined), in that order: 0.657 µM and 1.75 µM.
For the compound `COc1cc2c(cc1OCCCOC1=C=C=C(c3ccc4c(c3)c3cc(-c5ccc(OCCCOc6cc7c(cc6OC)C(=O)N6CCC[C@H]6C=N7)cc5)ccc3n4S(=O)(=O)c3ccc(C)cc3)C=C1)N=C[C@@H]1CCCN1C2=O`, the GI50 was 1.04 µM and the TGI was determined as 3.04 µM.
On to `COC(=O)Nc1nc2ccc(Oc3ccc(NC(=O)Nc4cccc(Br)c4)cc3)cc2[nH]1`, for which the GI50 is 1.29 µM and the TGI came to 6.28 µM.
For the compound `CCCCCCOc1ccc(/C=N/NC(N)=S)cc1`, the GI50 is 6.39 µM and the TGI is 32.7 µM.
For `COc1cc(C(=O)/C=C/c2c(-c3ccc(F)cc3)nc3sc(C)cn23)cc(OC)c1OC`, the GI50 is 2.38 µM and the TGI is above 100 µM.
Regarding `c1cc(C2CCCCC2)ccc1OCCCCCCN1CCNCC1`, the GI50 was 1.91 µM and the TGI worked out at 3.67 µM.
For `C[C@@H]1COCCN1c1nc(-c2cnc(N)cc2C(F)F)nc(N2[C@H](C)COC[C@@H]2C)n1`, the GI50 is 0.185 µM and the TGI was determined as 1.62 µM.
Regarding `Cn1c(=O)c(Oc2cccc(F)c2)cc2cnc(NC3CCOCC3)nc21`, the GI50 is above 25 µM and the TGI is above 25 µM.
For `Nc1c(C(=O)c2cccc(-c3ccc[n+]([O-])c3)c2)cnn1-c1ccc(F)cc1F`, the GI50 was above 25 µM and the TGI was above 25 µM.
For the compound `O=c1[nH]cnc2c1nnn2C1OC(CO)C(O)C1O` (centres undefined), the GI50 is 0.577 µM and the TGI was found to be 22 µM.
On to `O=C(Nc1ncc(Cc2ccccc2)s1)c1ccc2c(c1)OCCCO2`, for which the GI50 was 0.413 µM and the TGI was above 100 µM.
As for `CC1=C(C(=O)Nc2ccc3[nH]ncc3c2)C(c2ccc(F)cc2)NC(=O)N1` (centres undefined), the GI50 was above 25 µM and the TGI is above 25 µM.
With `O=C1c2ccccc2-c2nccc3cc(Cl)nc1c23`, the GI50 is 0.23 µM and the TGI is 0.602 µM.
On the same counts, the results for `COc1ccc(Nc2ncccc2/C=C/C(=O)c2cc(OC)c(OC)c(OC)c2)cc1` are 1.15 µM and 2.44 µM.
`N#Cc1ccc(/C=N/NC(=O)c2[nH]c3ccc(Br)cc3c2-c2ccccc2)s1`: the GI50 is 0.292 µM and the TGI came to 10.3 µM.
Take `CNc1nc(C)c(-c2nc(Nc3cccc(S(N)(=O)=O)c3)ncc2F)s1`: the GI50 is 0.0354 µM and the TGI stood at 0.116 µM.
On to `CCOCC(=O)N[C@H]1CCc2cc(OC)c(OC)c(OC)c2-c2ccc(SC)c(=O)cc21`, for which the GI50 is below 0.01 µM and the TGI is above 100 µM.
For `Cc1[nH]c(C(=O)Nc2ccc(C(=O)N3CCNCC3)cc2OC(C)C)c(Cl)c1Cl`, in that order: 1.67 µM and 3.18 µM.
On to `Fc1ccc(C2CC(c3cccc(Nc4ccncc4)c3)=NN2c2cc(Cl)cc(Cl)c2)cc1` (centres undefined), for which the GI50 is 1.76 µM and the TGI was determined as 3.72 µM.
Consider `CCOC(=O)c1cc2c(n1Cc1cc(OC)cc(OC)c1)-c1oncc1CCC2`, for which the GI50 was 0.0474 µM and the TGI was above 100 µM.
`N#Cc1c2ccccc2c2n1-c1ccccc1OC(c1ccccc1)C2=O` (centres undefined): the GI50 is 3.26 µM and the TGI worked out at 13.1 µM.
In the case of `O=CN1N=C(c2ccc(Nc3ccnc4cc(Cl)ccc34)cc2)CC1c1ccccc1` (centres undefined), the GI50 was 0.975 µM and the TGI amounted to 3.15 µM.
